From ChEMBL document CHEMBL4834409 (J Med Chem, 2021)
Active and inactive are the calls of the source. The calls are words filed in the database; no cut-off is given here.

How the values were obtained:
[1] = target: T1, Melatonin receptor type 1B (Homo sapiens, UniProt P49286); test: Displacement of 2-[125l]-lodomelatonin from human MT2 expressed in CHO cell membrane incubated for 150 mins by radioligand binding assay; assay type: cell membranes
T1 sequence (P49286 whole entry): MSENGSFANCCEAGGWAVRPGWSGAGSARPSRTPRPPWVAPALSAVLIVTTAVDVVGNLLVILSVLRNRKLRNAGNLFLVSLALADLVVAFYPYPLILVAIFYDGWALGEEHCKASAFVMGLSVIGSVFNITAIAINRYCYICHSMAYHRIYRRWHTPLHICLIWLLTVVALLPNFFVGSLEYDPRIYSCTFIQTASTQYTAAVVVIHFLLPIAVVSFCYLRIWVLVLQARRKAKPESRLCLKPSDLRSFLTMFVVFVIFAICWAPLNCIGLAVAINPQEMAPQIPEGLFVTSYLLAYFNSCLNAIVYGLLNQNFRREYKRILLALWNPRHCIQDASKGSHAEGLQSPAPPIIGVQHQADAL

[2] = target: T2, Melatonin receptor type 1A (Homo sapiens, UniProt P48039); test: Displacement of 2-[125l]-lodomelatonin from human MT1 expressed in CHO cell membrane incubated for 150 mins by radioligand binding assay; assay type: cell membranes
[3] = Ratio of drug concentration in brain to plasma in Sprague-Dawley rat at 0.1 mg/kg, po after 60 mins by LC/MS/MS analysis; assay type: ADME, organism-based; settings: read-out: BPR
Felis catus = test: Hypnotic activity in cats assessed as increase in total sleep time at 10 mg/kg, po after 8 hrs by EEG analysis; assay type: functional, organism-based
[4] = target: T1, Melatonin receptor type 1B; test: Agonist activity at human MT2 expressed in CHO-K1 cells assessed as inhibition of forskolin-induced cAMP accumulation incubated for 30 mins by AlphaScreen assay; assay type: functional, cell-based
[5] = Drug concentration in Sprague-Dawley rat plasma at 0.1 mg/kg, po after 60 mins by LC/MS/MS analysis; assay type: ADME, organism-based
[6] = target: T2, Melatonin receptor type 1A; test: Agonist activity at human MT1 expressed in CHO-K1 cells assessed as inhibition of forskolin-induced cAMP accumulation incubated for 30 mins by AlphaScreen assay; assay type: functional, cell-based
[7] = Drug concentration in Sprague-Dawley rat brain at 0.1 mg/kg, po after 60 mins by LC/MS/MS analysis; assay type: ADME, organism-based; settings: read-out: Ct
[8] = target: T3, Melatonin receptor type 1B (Homo sapiens) (UniProt P49286); test: Displacement of 2-[125l]-lodomelatonin from human MT2 expressed in CHO cell membrane at 100 nM incubated for 150 mins by radioligand binding assay relative to control; assay type: cell membranes
T3 sequence (whole entry): T1 sequence (P49286 whole entry)

[9] = target: T2, Melatonin receptor type 1A; test: Displacement of 2-[125l]-lodomelatonin from human MT1 expressed in CHO cell membrane at 100 nM incubated for 150 mins by radioligand binding assay relative to control; assay type: cell membranes
[10] = Oral bioavailability in Sprague-Dawley rat at 1 mg/kg administered as casette dosing by LC/MS/MS analysis; assay type: ADME, organism-based; settings: in vivo
[11] = Clearance in human hepatic microsomes at 1 umol/L incubated for 20 mins in presence of NADPH generating system by HPLC-UV analysis; assay type: ADME, Microsome; settings: liver microsomes, dose 1 µmol/L, read-out: CLH
[12] = Clearance in rat hepatic microsomes at 1 umol/L incubated for 20 mins in presence of NADPH generating system by HPLC-UV analysis; assay type: ADME, Microsome; settings: liver microsomes, dose 1 µmol/L, read-out: CLH
[13] = Oral bioavailability in Sprague-Dawley rat at 1 mg/kg by LC/MS/MS analysis; assay type: ADME, organism-based; settings: in vivo
[14] = Ratio of drug concentration in brain to plasma in Sprague-Dawley rat at 1 mg/kg, po after 60 mins by LC/MS/MS analysis; assay type: ADME, organism-based; settings: read-out: BPR
[15] = Drug concentration in Sprague-Dawley rat brain at 1 mg/kg, po after 60 mins by LC/MS/MS analysis; assay type: ADME, organism-based; settings: read-out: Ct
[16] = target: T2, Melatonin receptor type 1A; test: Binding affinity to human MT1 expressed in CHO cells; assay type: cell-based
[17] = target: T1, Melatonin receptor type 1B; test: Binding affinity to human MT2 expressed in CHO cells; assay type: cell-based
[18] = Drug concentration in Sprague-Dawley rat plasma at 1 mg/kg, po after 60 mins by LC/MS/MS analysis; assay type: ADME, organism-based

T2 sequence (P48039 whole entry): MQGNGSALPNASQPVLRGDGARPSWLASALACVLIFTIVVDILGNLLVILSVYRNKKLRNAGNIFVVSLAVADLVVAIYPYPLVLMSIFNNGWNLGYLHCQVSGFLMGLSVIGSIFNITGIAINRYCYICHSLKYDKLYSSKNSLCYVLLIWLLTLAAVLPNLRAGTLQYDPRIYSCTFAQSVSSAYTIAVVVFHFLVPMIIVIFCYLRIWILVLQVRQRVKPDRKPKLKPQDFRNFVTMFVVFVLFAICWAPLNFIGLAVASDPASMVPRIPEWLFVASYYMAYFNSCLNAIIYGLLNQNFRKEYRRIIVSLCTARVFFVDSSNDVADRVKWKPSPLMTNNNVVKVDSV

SMILES | Ki [1] [nM] | Ki [2] [nM] | bioavailability [10] [%] | microsomal CLint at 1 µM [11] [µL/min/mg] | microsomal CLint at 1 µM [12] [µL/min/mg] | also measured
CCOC(=O)c1c(C)nn2ccc3c(c12)C(CCNC(C)=O)CC3 (centres undefined) |  |  |  |  |  | inhibition [8]: < 50%; inhibition [9]: < 50%
CCC(=O)NCCC1CCc2ccc3nn(C)cc3c21 (centres undefined) | 0.35 | 0.3 | 13.7 | 23 | 79 | 
CC(=O)NCCC1CCc2ccn3nc(C)cc3c21 (centres undefined) | 1.4 | 0.2 | 14.3 | 14 | 42 | 
CC(=O)NCCC1CCc2ccc3nc(-c4ccccc4)oc3c21 (centres undefined) | 0.23 | 1.3 |  |  |  | 
CC(=O)NCCC1CCc2ccc3nc(C)sc3c21 (centres undefined) | 0.086 | 0.037 | 4.8 | 45 | 188 | 
CCC(=O)NCCC1CCc2ccc3nc(C)oc3c21 (centres undefined) | 0.088 | 0.067 | 6.8 | 29 | 96 | 
CC(=O)NCCC1CCc2ccc3nc(Cc4ccccc4)oc3c21 (centres undefined) | 0.12 | 4.4 |  |  |  | 
CC(=O)NCCC1CCc2ccn3nc(C)c(C)c3c21 (centres undefined) |  | 9.3 |  |  |  | inhibition [8]: < 50%
CCC(=O)NCCC1CCc2ccc3nc(C)sc3c21 (centres undefined) | 0.058 | 0.027 | 3.2 | 41 | 379 | 
CCC(=O)NCC[C@@H]1CCc2ccc3c(c21)CCO3 [RAMELTEON] |  |  |  | 51 | 126 | bioavailability [13]: 8.5%; Kp at 1 h [14]: 1.1; concentration at 1 h [15]: 17 ng/g; Ki [16]: 0.014 nM; Ki [17]: 0.112 nM; concentration at 1 h [18]: 15 ng/mL
CCC(=O)NCCC1CCc2ccn3nc(C)cc3c21 (centres undefined) | 0.95 | 0.17 |  | 20 | 84 | 

Further lines, with some results ahead:

Ki [1] [nM] | Ki [2] [nM] | bioavailability [10] [%] | microsomal CLint at 1 µM [11] [µL/min/mg] | microsomal CLint at 1 µM [12] [µL/min/mg] | SMILES | also measured
6.1 | 23 |  |  |  | CC(=O)NCC[C@H]1CCc2ccc3nc(C)oc3c21 | 
0.07 | 0.031 |  |  |  | CC(=O)NCC[C@@H]1CCc2ccc3nc(C)oc3c21 | Kp at 1 h [3]: 0.48; Activity (Felis catus): Active; EC50 [4]: 0.51 nM; concentration at 1 h [5]: 2.9 ng/mL; EC50 [6]: 0.015 nM; concentration at 1 h [7]: 1.4 ng/g
0.15 | 0.39 |  |  |  | CC(=O)NCCC1CCc2ccc3nc(C4CC4)oc3c21 (centres undefined) | 
0.15 | 0.45 |  |  |  | COc1nc2ccc3c(c2o1)C(CCNC(C)=O)CC3 (centres undefined) | 
0.13 | 0.067 | 18.5 |  | 34 | CC(=O)NCCC1CCc2ccc3nc(C)oc3c21 (racemic) | 
0.073 | 0.45 |  |  |  | CC(=O)NCCC1CCc2ccc3ncoc3c21 (centres undefined) | 
1.1 | 1.2 |  |  |  | CC(=O)NCCC1CCc2ccc3nc(CO)oc3c21 (centres undefined) | 
0.75 | 0.35 | 20.9 | 5 | 44 | CC(=O)NCCC1CCc2ccc3nn(C)cc3c21 (centres undefined) | 
0.16 | 0.22 |  |  |  | CCc1nc2ccc3c(c2o1)C(CCNC(C)=O)CC3 (centres undefined) | 
